PMC7083565, “In vitro metabolism, reaction phenotyping, enzyme kinetics, CYP inhibition and induction potential of ataluren” (Pharmacology Research & Perspectives, 2020)

Key:
Assay type in all cases: in vitro ADME
[1] = Metabolism of [14C]-ataluren in pooled human liver microsomes with cofactors
Method: [^14C]‐Ataluren at 1, 10, and 100 μmol/L was incubated (n = 3) with pooled HLM (1 mg protein/mL) at 37 ± 1°C in 0.2 mL incubation mixtures (final volume) containing potassium phosphate buffer (50 mmol/L, pH 7.4), MgCl2 (3 mmol/L), and EDTA (1 mmol/L) with and without cofactors, NADPH‐generating system (1 mmol/L NADP, 5 mmol/L glucose‐6‐phosphate, and 1 unit/mL glucose‐6‐phosphate dehydrogenase), and uridine diphosphate glucuronic acid (UDPGA, 8 mmol/L). [^14C]‐Ataluren was added in DMSO (final percent of 0.1% v/v). Reactions were started by the addition of the cofactors and terminated by the addition of stop reagent (0.2 mL of 2% v/v formic acid/acetonitrile) at 0, 60, and 120 minutes. Precipitated protein was removed by centrifugation (920 g for 10 minutes at 10°C). The supernatant fractions were analyzed by LC/RAM/MS to determine percent loss of substrate in incubations. Detailed LC/MS conditions are summarized in LC‐MS/MS Analysis section. After chromatographic separation, the detected radioactive peaks were integrated, and their identity was confirmed using mass spectrometry analysis. [^14C]‐ataluren remaining at specific timepoint after incubation was compared with the amount of [^14C]‐ataluren at 0 minutes incubation sample in the same matrix (eg, with or without cofactors etc) to calculate the percentage of ataluren remaining. The percentage of [^14C]‐ataluren acyl glucuronide formation at specific timepoint after incubation was calculated using the amount of metabolite formed over the total radioactivity in each sample.
[^14C]‐Ataluren and metabolites were monitored by LC/RAM/MS system, which consisted of two Shimadzu LC‐10ATvp pumps (Shimadzu Scientific Instruments, Columbia, MD, USA), a Shimadzu SIL‐5000 autosampler, an IN/US Systems β‐RAM radiometric detector (LabLogic), and a Sciex API 4000 QTRAP triple quadrupole mass spectrometer (Sciex) equipped with a Turbo Ionspray ionization source operated in negative ionization mode. The Ionspray voltage was set at 4.5 kV with the source temperature at 450 °C. MS/MS was carried out with nitrogen as the collision gas. The column used was a Phenomenex Luna C8, 3 μm, 150 × 3.0 mm column (Phenomenex, Torrance, CA, USA). Mobile phase A consisted of 0.2% formic acid in water and mobile phase B consisted of 0.2% formic acid in acetonitrile. The flow rate was 0.50 mL/min with gradient program as follows: hold isocratic at 5% B for 2 minutes; linear gradient from 5% B to 60% B in 20 minutes; linear gradient from 60% B to 95% B in 5 minutes and hold isocratic at 95% B for 2 minutes; linear gradient from 95% B to 5% B in 0.5 minutes and hold isocratic at […] for 3.5 minutes.

CYP2C9 = target: T1, CYP2C9 (Homo sapiens, UniProt P11712); experiment: CYP inhibition in pooled human liver microsomes: CYP2C9
T1 construct: tissue XenoTech LLC, Celsis-In Vitro Technologies, or Tissue Transformation Technologies; host or cells: pooled human liver microsomes
Method: The final concentration of each probe substrate was near the experimentally determined Km value for the indicated enzyme. Ataluren or prototypical CYP inhibitors (positive controls) was incubated (n = 3) with probe substrates and HLM in 100 mmol/L phosphate buffer (pH 7.4) in a total volume of approximately 0.25 mL, and the reactions were initiated by the addition of 1 mmol/L NADPH at 37°C. The reactions were carried out using previously established conditions to ensure linearity with respect to protein concentration and incubation time (Table S1). Incubations were stopped with the addition of ice‐cold acetonitrile. Metabolite formation in incubations with test compound and control inhibitors was assessed with LC‐MS/MS methods for each of the reaction products as described in Table S2. […] After 7 minutes incubation at 37°C, the reaction was stopped by the addition of ice‐cold acetonitrile, followed by membrane plate filtration. The filtrates were used for LC‐MS/MS analysis. Enzyme activity remaining at each nonzero ataluren concentration after incubation was normalized against control sample (zero ataluren concentration, enzyme activity = 100%), and the % remaining enzyme activity values were used for IC50 calculation. IC50 values were determined by nonlinear regression with GraphPad Prism 5 using the following four‐parameter sigmoidal‐logistic IC50 equation: Fit=background+range-background/[1+I/IC50^slope]
Where, I is the inhibitor concentration, and background was set to 0 and range to 100, as percent of control values are utilized. K i was determined by nonlinear regression with GraphPad Prism 5 using best fit model.

CYP3A4/5 = experiment: CYP induction in primary human hepatocytes: CYP3A4/5; conditions: Testosterone 6β-hydroxylase, 48 hours, n=3
Method: Human hepatocytes isolated from three Caucasian males were transferred to 48‐well collagen‐coated plates at 0.14 × 10^6 cells/well in planting media for attachment. After attachment, planting media was replaced with sandwich media and the cells were incubated until clusters were established. […] The incubation solutions were aspirated and replaced with freshly prepared incubation solutions containing ataluren for an additional 24 hours. […] The incubation solutions were then aspirated and 150 µL of K‐H buffer containing CYP substrates were added. The hepatocytes were incubated for 30 minutes for CYP2C8 (10 µmol/L amodiaquine), 1 hour for CYP3A4 (125 µmol/L testosterone), and 4 hours for CYPs 1A2 (100 µmol/L phenacetin), 2A6 (100 µmol/L coumarin), 2B6 (150 µmol/L bupropion), 2C9 (50 µmol/L tolbutamide), 2C19 (100 µmol/L S‐mephenytoin), and 2E1 (300 µmol/L chlorzoxazone) activity assays. The reactions were stopped by the addition of 0.15 mL of ice‐cold methanol except that coumarin‐treated cells were incubated with β‐glucuronidase and aryl sulfatase for additional 1 hour to free 7‐hydroxycoumarin before the addition of 0.2 mL of ice‐cold methanol. Metabolite formation in incubations with test compounds and control inhibitors was assessed with validated LC‐MS/MS methods for each of the reaction products as described in Table S2. Enzymatic activity for each CYP was calculated using the absolute amount of metabolite formed (pmol) divided by hepatocytes in the incubation (million cells) and the incubation time (minute). The relative fold induction in enzymatic activity was calculated by comparing the rate of metabolite formation for treatment groups to that of the solvent control group (reported as vehicle control%) or positive control group (reported as positive control%).

T1 sequence (P11712 whole entry): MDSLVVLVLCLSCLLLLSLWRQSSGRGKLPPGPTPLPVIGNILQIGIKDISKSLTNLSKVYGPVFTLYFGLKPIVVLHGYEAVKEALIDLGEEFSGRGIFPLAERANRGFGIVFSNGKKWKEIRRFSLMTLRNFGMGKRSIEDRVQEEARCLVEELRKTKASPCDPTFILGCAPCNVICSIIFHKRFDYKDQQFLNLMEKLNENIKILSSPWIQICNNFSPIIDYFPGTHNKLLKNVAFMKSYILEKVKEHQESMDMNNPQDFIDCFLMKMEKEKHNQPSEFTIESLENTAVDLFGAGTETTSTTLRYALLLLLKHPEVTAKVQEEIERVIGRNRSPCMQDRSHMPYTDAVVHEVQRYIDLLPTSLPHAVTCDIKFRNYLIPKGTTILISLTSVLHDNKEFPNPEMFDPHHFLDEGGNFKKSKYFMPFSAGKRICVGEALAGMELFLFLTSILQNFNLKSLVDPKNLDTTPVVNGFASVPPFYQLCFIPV

Q: Which ataluren loss ([1]; NADPH fortified HLM, 1, 10 and 100 µmol/L, up to 120 minutes) does the source give for `O=C(O)c1cccc(-c2noc(-c3ccccc3F)n2)c1` [ataluren, Ataluren] here?
A: Its ataluren loss is “no ataluren loss was observed”.

Q: What about the ataluren loss ([1]; UDPGA fortified HLM, 1 µmol/L, 120 minutes, n = 3) of the same molecule?
A: Its ataluren loss is 32%.

Q: And the ataluren loss ([1]; UDPGA fortified HLM, 10 µmol/L, 120 minutes, n = 3)?
A: Its ataluren loss is 31%.

Q: What about the ataluren loss ([1]; UDPGA fortified HLM, 100 µmol/L, 120 minutes, n = 3) of the same molecule?
A: The ataluren loss was 18%.

Q: What about the Ki (CYP2C9; CYP2C9, competitive, mean ± SE, n = 3) of the same molecule?
A: Its Ki is 75.4 ± 4.42 µM.

Q: What about the mechanism of inhibition (CYP2C9; CYP2C9, tolbutamide methyl hydroxylase) of the same molecule?
A: The mechanism of inhibition was “competitive inhibitor”.

Q: What about the IC50 (CYP2C9; Diclofenac 4′-hydroxylase, pooled HLM, n=3, (95% confidence interval)) of the same molecule?
A: The IC50 was 135 µM.

Q: What about the IC50 (CYP2C9; human, pooled human liver microsomes, pH 7.4, CYP2C9, HLM) of the same molecule?
A: The IC50 was 134 µM.

Q: What about the “Positive control %, Mean” value (CYP3A4/5; ataluren 4 µM) of the same molecule?
A: The value was 0.594%.

Q: What about the “Vehicle control %, Mean” value (CYP3A4/5; ataluren 4 µM) of the same molecule?
A: Its value is 103%.

Q: What about the “Positive control %, Mean” value (CYP3A4/5; ataluren 40 µM) of the same molecule?
A: The value was 1.52%.

Q: And the “Vehicle control %, Mean” value (CYP3A4/5; ataluren 40 µM)?
A: Its value is 105%.

Q: What about the “Positive control %, Mean” value (CYP3A4/5; ataluren 400 µM) of the same molecule?
A: Its value is 3.72%.

Q: And the “Vehicle control %, Mean” value (CYP3A4/5; ataluren 400 µM)?
A: Its value is 109%.
